Source: US9321790B2, “Pyrimidinone derivatives as antimalarial agents” (SANOFI, priority 2012, dated 2016)
Like-named read-outs stand apart in the source and are kept apart here.

Assays:
[1] = test system: Plasmodium falciparum (strain NF54); experiment: Antimalarial activity test: growth of Plasmodium falciparum in infected human erythrocytes, 3H-hypoxanthine incorporation; type: cell-based; settings: strain NF54 sensitive to chloroquine, 72 h total incubation
Method in brief: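 Chloroquine-sensitive NF54 parasites in human erythrocytes (1.25% hematocrit, 0.15% parasitemia) were grown in hypoxanthine-free RPMI 1640 with HEPES and Albumax II, with compound in twofold serial dilution, at 37 °C under 93% N2/4% CO2/3% O2. After 48 h, 3H-hypoxanthine (0.5 μCi) was added for 24 h. Scintillation counts versus drug-free control gave IC50.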

human PI3Kα = human PI3Kα (Homo sapiens (Human), UniProt P42336); experiment: Human PI3Kα activity test (luciferin/luciferase ATP consumption, KinaseGlo); type: biochemical
Chain of human PI3Kα (P42336 whole entry): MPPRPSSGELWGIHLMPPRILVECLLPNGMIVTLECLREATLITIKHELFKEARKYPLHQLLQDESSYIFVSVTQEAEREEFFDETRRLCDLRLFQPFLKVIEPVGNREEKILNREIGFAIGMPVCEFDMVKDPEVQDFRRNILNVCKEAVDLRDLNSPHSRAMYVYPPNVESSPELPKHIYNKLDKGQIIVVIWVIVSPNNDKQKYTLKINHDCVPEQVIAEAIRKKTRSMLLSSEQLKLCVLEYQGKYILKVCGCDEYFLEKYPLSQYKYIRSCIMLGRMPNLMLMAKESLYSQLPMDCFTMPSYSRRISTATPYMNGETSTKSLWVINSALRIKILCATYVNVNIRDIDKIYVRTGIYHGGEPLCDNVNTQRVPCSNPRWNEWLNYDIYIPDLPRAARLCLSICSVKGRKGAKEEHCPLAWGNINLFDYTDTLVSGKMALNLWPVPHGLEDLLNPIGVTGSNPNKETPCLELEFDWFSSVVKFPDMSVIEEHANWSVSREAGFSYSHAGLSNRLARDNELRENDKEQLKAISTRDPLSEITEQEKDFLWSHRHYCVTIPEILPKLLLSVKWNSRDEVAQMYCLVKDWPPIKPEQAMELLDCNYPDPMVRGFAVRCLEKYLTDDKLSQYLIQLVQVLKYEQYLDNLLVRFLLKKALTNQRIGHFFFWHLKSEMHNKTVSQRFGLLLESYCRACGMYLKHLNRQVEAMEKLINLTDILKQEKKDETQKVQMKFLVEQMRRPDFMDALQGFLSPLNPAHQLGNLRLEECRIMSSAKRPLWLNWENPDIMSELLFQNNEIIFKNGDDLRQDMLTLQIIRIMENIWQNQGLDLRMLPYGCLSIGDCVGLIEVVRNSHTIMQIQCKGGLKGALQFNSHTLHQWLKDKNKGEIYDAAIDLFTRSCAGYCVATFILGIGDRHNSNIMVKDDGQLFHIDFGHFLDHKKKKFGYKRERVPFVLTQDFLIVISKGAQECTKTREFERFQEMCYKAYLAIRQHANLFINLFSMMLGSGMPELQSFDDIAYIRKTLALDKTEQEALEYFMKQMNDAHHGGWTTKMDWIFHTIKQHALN
Chain of human PI3Kα (P27986 whole entry partner): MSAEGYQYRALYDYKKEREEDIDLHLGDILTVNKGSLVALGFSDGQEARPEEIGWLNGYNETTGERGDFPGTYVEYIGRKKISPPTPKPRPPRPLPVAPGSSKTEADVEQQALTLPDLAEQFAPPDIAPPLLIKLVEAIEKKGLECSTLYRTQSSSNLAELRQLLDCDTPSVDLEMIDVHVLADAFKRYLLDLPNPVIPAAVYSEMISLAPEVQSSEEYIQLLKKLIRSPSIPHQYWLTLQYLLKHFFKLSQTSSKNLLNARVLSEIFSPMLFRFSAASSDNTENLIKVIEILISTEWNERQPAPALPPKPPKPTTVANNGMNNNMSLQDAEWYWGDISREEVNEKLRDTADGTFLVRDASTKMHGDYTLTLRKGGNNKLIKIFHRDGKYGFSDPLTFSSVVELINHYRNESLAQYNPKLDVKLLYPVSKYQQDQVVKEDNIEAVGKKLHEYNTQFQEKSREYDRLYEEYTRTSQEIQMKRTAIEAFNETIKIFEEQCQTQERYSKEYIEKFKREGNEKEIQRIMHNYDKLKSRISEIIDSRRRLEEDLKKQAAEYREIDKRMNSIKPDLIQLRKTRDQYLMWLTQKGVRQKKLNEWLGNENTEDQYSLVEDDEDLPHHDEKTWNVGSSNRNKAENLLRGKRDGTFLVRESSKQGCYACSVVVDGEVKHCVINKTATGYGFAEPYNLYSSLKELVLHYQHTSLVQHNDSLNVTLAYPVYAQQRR
Procedure: The test uses a luciferin/luciferase system to measure the concentration of ATP and its consumption during the enzymatic reaction.
After 90 minutes, the reaction is quenched by adding 20 μl/well of KinaseGlo reagent (Promega V6713). After 10 minutes in the dark, the luminescence is read using a PHERAStar microplate reader (reading at 0.8 sec/well).

[2] = Plasmodium falciparum, Erythrocyte
[3] = PI3Kα (p110α/p85α), 50 μM PIP2, 2 μM ATP, 90 minutes, read-out: IC50 Human PI3Kα

| IC50 [1, 2] [nM] | IC50 (human PI3Kα; [3]) [nM] | IC50 [1] [nM] | Structure (SMILES) | IC50 (human PI3Kα) [nM] |
| --- | --- | --- | --- | --- |
| 140 | 5770 | – | O=C(CN1c2nc(N3C[C@@H]4C[C@H]3CO4)cc(=O)n2CC[C@H]1C(F)(F)F)c1cnc2c(c1)OCCN2 [Compound 38, (8S)-9-[2-(3,4-dihydro-2H-pyrido[3,2-b][1,4]oxazin-7-yl)-2-oxoethyl]-2-(1S,4S)-2-oxa-5-azabicyclo[2.2.1]hept-5-yl-8-trifluoromethyl-6,7,8,9-tetrahydropyrimido[1,2-a]pyrimidin-4-one] | – |
| 46 | 7930 | – | CC(C)(C)C(=O)CN1c2nc(N3C[C@@H]4C[C@H]3CO4)cc(=O)n2CC[C@H]1C(F)(F)F [Compound 29, (8S)-9-(3,3-dimethyl-2-oxobutyl)-2-(1S,4S)-2-oxa-5-azabicyclo[2.2.1]hept-5-yl-8-trifluoromethyl-6,7,8,9-tetrahydropyrimido[1,2-a]pyrimidin-4-one] | – |
| 42 | > 10000 | – | Cc1ncsc1C(=O)CN1c2nc(N3C[C@@H]4C[C@H]3CO4)cc(=O)n2CC[C@H]1C(F)(F)F [Compound 43, (8S)-9-[2-(4-methylthiazol-5-yl)-2-oxoethyl]-2-(1S,4S)-2-oxa-5-azabicyclo[2.2.1]hept-5-yl-8-trifluoromethyl-6,7,8,9-tetrahydropyrimido[1,2-a]pyrimidin-4-one] | – |
| 106 | > 10000 | – | O=C(CN1c2nc(N3C[C@@H]4C[C@H]3CO4)cc(=O)n2CC[C@H]1C(F)(F)F)c1cncc(Cl)c1 [Compound 44, (8S)-9-[2-(5-Chloropyrid-3-yl)-2-oxoethyl]-2-(1S,4S)-2-oxa-5-azabicyclo[2.2.1]hept-5-yl-8-trifluoromethyl-6,7,8,9-tetrahydropyrimido[1,2-a]pyrimidin-4-one] | – |
| > 200 | > 7200 | – | Cc1cncc(C(=O)CN2c3nc(N4C[C@@H]5C[C@H]4CO5)cc(=O)n3C[C@@]2(C)C(F)(F)F)c1 [Compound 16, 2-methyl-1-[2-(5-methylpyrid-3-yl)-2-oxoethyl]-7-(1S,4S)-2-oxa-5-azabicyclo[2.2.1]hept-5-yl-2-((S)-trifluoromethyl)-2,3-dihydro-1H-imidazo[1,2-a]pyrimidin-5-one] | – |
| 82 | > 10000 | – | C[C@@]1(C(F)(F)F)Cn2c(nc(N3C[C@@H]4C[C@H]3CO4)cc2=O)N1CC(=O)c1cccnc1 [Compound 21, 2-methyl-7-(1S,4S)-2-oxa-5-azabicyclo[2.2.1]hept-5-yl-1-(2-oxo-2-pyrid-3-ylethyl)-2-((S)-trifluoromethyl)-2,3-dihydro-1H-imidazo[1,2-a]pyrimidin-5-one] | – |
| 45 | > 10000 | – | CC(C)C(=O)CN1c2nc(N3C[C@@H]4C[C@H]3CO4)cc(=O)n2CC[C@H]1C(F)(F)F [Compound 56, (8S)-9-(3-methyl-2-oxobutyl)-2-(1S,4S)-2-oxa-5-azabicyclo[2.2.1]hept-5-yl-8-trifluoromethyl-6,7,8,9-tetrahydropyrimido[1,2-a]pyrimidin-4-one] | – |
| 95 | 8200 | – | CNc1ccc(C(=O)CN2c3nc(N4C[C@@H]5C[C@H]4CO5)cc(=O)n3CC[C@H]2C(F)(F)F)cn1 [Compound 5, (8S)-9-[2-(6-methylaminopyrid-3-yl)-2-oxoethyl]-2-(1S,4S)-2-oxa-5-azabicyclo[2.2.1]hept-5-yl-8-trifluoromethyl-6,7,8,9-tetrahydropyrimido[1,2-a]pyrimidin-4-one] | – |
| 245 | > 10000 | – | O=C(CN1c2nc(N3C[C@@H]4C[C@H]3CO4)cc(=O)n2CC[C@H]1C(F)(F)F)c1ccc(OC(F)F)nc1 [Compound 114, (S)-9-[2-(6-difluoromethoxypyrid-3-yl)-2-oxoethyl]-2-(1S,4S)-2-oxa-5-azabicyclo[2.2.1]hept-5-yl-8-trifluoromethyl-6,7,8,9-tetrahydropyrimido[1,2-a]pyrimidin-4-one] | – |
| 384 | > 7200 | – | O=C(CN1c2nc(N3C[C@@H]4C[C@H]3CO4)cc(=O)n2CC[C@H]1C(F)(F)F)c1ccc(OCCF)nc1 [Compound 63, (S)-9-{2-[6-(2-fluoroethoxy)pyrid-3-yl]-2-oxoethyl}-2-(1S,4S)-2-oxa-5-azabicyclo[2.2.1]hept-5-yl-8-trifluoromethyl-6,7,8,9-tetrahydropyrimido[1,2-a]pyrimidin-4-one] | – |
| 43 | 4000 | – | O=C(CN1c2nc(N3C[C@@H]4C[C@H]3CO4)cc(=O)n2CC[C@H]1C(F)(F)F)C1CC1 [Compound 67, (8S)-9-(2-Cyclopropyl-2-oxoethyl)-2-(1S,4S)-2-oxa-5-azabicyclo[2.2.1]hept-5-yl-8-trifluoromethyl-6,7,8,9-tetrahydropyrimido[1,2-a]pyrimidin-4-one] | – |
| 170 | 7300 | – | O=c1cc(N2CC3CCC(C2)O3)nc2n1CC[C@@H](C(F)(F)F)N2Cc1ccn(C(F)F)n1 [Compound 86, (8S)-9-(1-Difluoromethyl-1H-pyrazol-3-ylmethyl)-2-(8-oxa-3-azabicyclo[3.2.1]oct-3-yl)-8-trifluoromethyl-6,7,8,9-tetrahydropyrimido[1,2-a]pyrimidin-4-one] | – |
| 24 | 1900 | – | O=c1cc(N2C[C@@H]3C[C@H]2CO3)nc2n1CC[C@@H](C(F)(F)F)N2CCC1(O)CC1 [Compound 105, (8S)-9-[2-(1-Hydroxycyclopropyl)ethyl]-2-(1S,4S)-2-oxa-5-azabicyclo[2.2.1]hept-5-yl-8-trifluoromethyl-6,7,8,9-tetrahydropyrimido[1,2-a]pyrimidin-4-one] | – |
| – | 7200 | 11 | COc1ccc(CCN2c3nc(N4C[C@@H]5C[C@H]4CO5)cc(=O)n3C[C@@]2(C)C(F)(F)F)cc1 [Compound 10, (8S)-1-[2-(4-Methoxyphenyl)ethyl]-2-methyl-7-(1S,4S)-2-oxa-5-azabicyclo[2.2.1]hept-5-yl-2-trifluoromethyl-2,3-dihydro-1H-imidazo[1,2-a]pyrimidin-5-one] | – |
| 330 | > 10000 | – | O=C(CN1c2nc(N3C[C@@H]4C[C@H]3CO4)cc(=O)n2CC[C@H]1C(F)(F)F)N1CCOCC1 [Compound 110, (8S)-9-(2-Morpholin-4-yl-2-oxoethyl)-2-(1S,4S)-2-oxa-5-azabicyclo[2.2.1]hept-5-yl-8-trifluoromethyl-6,7,8,9-tetrahydropyrimido[1,2-a]pyrimidin-4-one] | – |
| 3 | 1040 | – | CCNC(=O)Nc1ccc(CCN2c3nc(N4C[C@@H]5C[C@H]4CO5)cc(=O)n3CC[C@H]2C(F)(F)F)cc1 [Compound 23, 1-ethyl-3-{4-[2-((8S)-8-(1S,4S)-2-oxa-5-azabicyclo[2.2.1]hept-5-yl-6-oxo-2-trifluoromethyl-3,4-dihydro-2H,6H-pyrimido[1,2-a]pyrimidin-1-yl)ethyl]phenyl}urea] | – |
| – | > 10000 | 93 | Cc1ncccc1C(=O)CN1c2nc(N3C[C@@H]4C[C@H]3CO4)cc(=O)n2C[C@@]1(C)C(F)(F)F [Compound 18, 2-Methyl-1-[2-(2-methylpyrid-3-yl)-2-oxoethyl]-7-(1S,4S)-2-oxa-5-azabicyclo[2.2.1]hept-5-yl-2-((S)-trifluoromethyl)-2,3-dihydro-1H-imidazo[1,2-a]pyrimidin-5-one] | – |
| 230 | > 10000 | – | O=C(CN1c2nc(N3C[C@@H]4C[C@H]3CO4)cc(=O)n2CC[C@H]1C(F)(F)F)c1ccc(OC(F)F)cc1 [Compound 37, (S)-9-[2-(4-Difluoromethoxyphenyl)-2-oxoethyl]-2-(1S,4S)-2-oxa-5-azabicyclo[2.2.1]hept-5-yl-8-trifluoromethyl-6,7,8,9-tetrahydropyrimido[1,2-a]pyrimidin-4-one] | – |
| 8 | 4300 | – | CC(C)(O)CCN1c2nc(N3C[C@@H]4C[C@H]3CO4)cc(=O)n2CC[C@H]1C(F)(F)F [Compound 50, (8S)-9-(3-hydroxy-3-methylbutyl)-2-(1S,4S)-2-oxa-5-azabicyclo[2.2.1]hept-5-yl-8-trifluoromethyl-6,7,8,9-tetrahydropyrimido[1,2-a]pyrimidin-4-one] | – |
| 79 | 7800 | – | O=c1cc(N2C[C@@H]3C[C@H]2CO3)nc2n1CC[C@@H](C(F)(F)F)N2Cc1cccc2cnccc12 [Compound 109, (8S)-9-Isoquinolin-5-ylmethyl-2-(1S,4S)-2-oxa-5-azabicyclo[2.2.1]hept-5-yl-8-trifluoromethyl-6,7,8,9-tetrahydropyrimido[1,2-a]pyrimidin-4-one] | – |
| 39 | > 10000 | – | O=C(CN1c2nc(N3C[C@@H]4C[C@H]3CO4)cc(=O)n2CC[C@H]1C(F)(F)F)c1ccc(OCCF)c(F)c1 [Compound 64, (8S)-9-{2-[3-Fluoro-4-(2-fluoroethoxyl)phenyl]-2-oxoethyl}-2-(1S,4S)-2-oxa-5-azabicyclo[2.2.1]hept-5-yl-8-trifluoromethyl-6,7,8,9-tetrahydropyrimido[1,2-a]pyrimidin-4-one] | – |
| 13 | > 10000 | – | O=c1cc(N2C[C@@H]3C[C@H]2CO3)nc2n1CC[C@@H](C(F)(F)F)N2Cc1cccc2ncccc12 [Compound 106, (8S)-2-(1S,4S)-2-oxa-5-azabicyclo[2.2.1]hept-5-yl-9-quinolin-5-ylmethyl-8-trifluoromethyl-6,7,8,9-tetrahydropyrimido[1,2-a]pyrimidin-4-one] | – |

| Structure (SMILES) | IC50 [1, 2] [nM] | IC50 (human PI3Kα; [3]) [nM] | IC50 [1] [nM] | IC50 (human PI3Kα) [nM] |
| --- | --- | --- | --- | --- |
| O=C(CN1c2nc(N3C[C@@H]4C[C@H]3CO4)cc(=O)n2CC[C@H]1C(F)(F)F)N1C2CCC1COC2 [Compound 99, (8S)-2-(1S,4S)-2-oxa-5-azabicyclo[2.2.1]hept-5-yl-9-[2-(3-oxa-8-azabicyclo[3.2.1]oct-8-yl)-2-oxoethyl]-8-trifluoromethyl-6,7,8,9-tetrahydropyrimido[1,2-a]pyrimidin-4-one] | 170 | – | – | > 10000 |
